PMC6152192, “Novel Methylselenoesters as Antiproliferative Agents” (Molecules : A Journal of Synthetic Chemistry and Natural …, 2017)

Tests used:
[1] = system: BEAS-2B (non-malignant bronchial epithelial); test: MTT viability assay, BEAS-2B; assay type: cell-based; settings: BEAS-2B non-malignant, 72 h, MTT; for CC50: read-out: LC50 (the source's name)
Procedure: (§1) The novel compounds were tested against a panel of different cancer lines: PC-3 (prostate adenocarcinoma), MCF7 (mammary adenocarcinoma), HTB-54 (lung carcinoma), K-562 (chronic myelogenous leukemia) and HT-29 (colorectal adenocarcinoma). Two non-malignant cell lines, BEAS-2B (bronchial epithelial) and 184B5 (mammary epithelial) were also included to evaluate the toxicity of the novel synthesized compounds. The antiproliferative activity was measured with the [3-(4,5-dimethylthiazol-2-yl)-2,5-diphenyltetrazolium bromide] (MTT) assay after 72 h treatment. Six concentrations ranging from 0.1 to 100 μM were tested. MSA is largely known as the main CH3SeH putative precursor and was therefore included as positive control. The following parameters were calculated: GI50 (concentration which reduces the growth by 50%), TGI (concentration completely inhibiting growth) and LC50 (concentration that kills 50% of the cells).
(§2) All cells were purchased from the American Type Culture Collection (ATCC, Barcelona, Spain). HT-29 (colorectal adenocarcinoma), HTB-54 (grade III lung carcinoma), MCF7 (mammary adenocarcinoma), PC-3 (grade IV prostate adenocarcinoma) and K-562 (chronic myelogenous leukemia) were cultured in RPMI (Gibco, Madrid, Spain), 10% FBS (Gibco), 100 units/mL penicillin and 100 μg/mL streptomycin (Gibco). BEAS-2B cell line (normal epithelial lung) was cultured in DMEM (Gibco), 10% FBS, 100 units/mL penicillin and 100 μg/mL streptomycin. 184B5 (normal mammary gland) cell line was cultured in DMEM:F12 supplemented with 5% FBS, 1 × ITS (Lonza, Barcelona, Spain), 100 nM hydrocortisone (Sigma-Aldrich), 2 mM sodium pyruvate (Lonza), 20 ng/mL EGF (Sigma-Aldrich), 0.3 nM trans-retinoic acid (Sigma-Aldrich), 100 units/mL penicillin and 100 µg/mL streptomycin. Cells were cultured at 37 °C under 5% CO2.
(§3) Cell viability after treatment was assessed by the well-known 3-(4,5-dimethyl-thiazol-2-yl)-2,5-diphenyltetrazolium bromide (MTT, Sigma-Aldrich) assay. Briefly, 10,000 cells were seeded in 96-well plates, treated and incubated for 72 h. Dilutions of the compounds in cell medium were freshly prepared from a 0.01 M stock in DMSO. After treatment, 50 μL of MTT solution in PBS (2 mg/mL) were added and cells were incubated for 4 h. Medium was removed and 150 μL of DMSO was added to dissolve the formed formazan crystals. Absorbance was read at 550 nm in a microplate absorbance reader (Sunrise, Tecan, Männedorf, Switzerland).

[2] = system: MCF7 (mammary adenocarcinoma); test: MTT viability assay, MCF7; assay type: cell-based; settings: MCF7, 72 h, MTT; for CC50: read-out: LC50 (the source's name)
Procedure: as §1, §2, §3

[3] = system: HTB-54 (lung carcinoma); test: MTT viability assay, HTB-54; assay type: cell-based; settings: HTB-54, 72 h, MTT; for CC50: read-out: LC50 (the source's name)
Procedure: as §1, §2, §3

[4] = system: glutathione-glutaredoxin (GSH-Grx) system; test: Glutaredoxin/glutathione assay (NADPH consumption); assay type: biochemical; settings: 1 mM GSH, 200 μM NADPH, yeast GR, 1 μM hGrx1 when required, 45 min
Procedure: The assay was performed as previously described, with minor modifications and adapted for a 96-well plate. A mixture of 0.1 M Tris pH 8, 2 mM EDTA pH = 8, 0.1 mg/mL BSA, 1 mM GSH, 200 μM NADPH, and 0.008 OD/mL yeast GR was prepared (all reagents were purchased from Sigma-Aldrich). Reactions were performed with 1 μM hGrx1 (IMCO Corporation, Stockholm, Sweden) when corresponding and different concentrations of the compounds. A 100 μL mixture was added, and the final volume was adjusted to 110 μL per well. Consumption of NADPH was monitored at A340 on a VersaMax microplate reader (Molecular Devices) for 45 min.
(§4) Figure 7 Compounds 5 and 15 are substrates for thioredoxin reductase but not for the glutathione-glutaredoxin system. (A) NADPH consumption indicating reduction of compounds 5, 15 or MSA as control by thioredoxin reductase. The reaction mixture contained 100 nM TrxR1, 227 μM NADPH and the corresponding amount of compound in TE buffer (20 mM Tris, 2 mM EDTA pH = 8); (B) NADPH consumption indicating reduction of MSA by glutathione in the presence or absence of glutaredoxin. The reaction mixture contained the corresponding amount of compound, 0.1 M Tris, 2 mM EDTA pH = 8, 0.1 mg/mL BSA, 1 mM GSH, 200 μM NADPH, 0.008 OD/mL yeast GR and 1 μM hGrx1 when required. Only results for MSA are shown, as compounds 5 and 15 were not reduced.

[5] = system: 184B5 (non-malignant mammary epithelium); test: MTT viability assay, 184B5; assay type: cell-based; settings: 184B5 non-malignant, 72 h, MTT; for CC50: read-out: LC50 (the source's name)
Procedure: as §1, §2, §3

[6] = system: thioredoxin reductase (TrxR1); test: Thioredoxin reductase activity assay (NADPH consumption); assay type: biochemical; settings: 100 nM TrxR1, 227 μM NADPH, TE buffer pH 8, 45 min
Procedure: The assay was performed as previously described, but in a final volume of 200 μL in a 96-well plate. Reaction started after addition of 133 μL of TE buffer (20 mM Tris, 2 mM EDTA, pH = 8), 0.227 mM NADPH (freshly prepared) to different concentrations of compounds solved in DMSO and TrxR1 (final concentration 100 nM). NADPH consumption was followed measuring absorbance decrease at 340 nm in a VersaMax microplate reader (Molecular Devices, Sunnyvale, CA, USA) over 45 min. A background sample with DMSO without the compounds was included and subtracted from the values.
as §4

[7] = system: PC-3 (prostate adenocarcinoma); test: MTT viability assay, PC-3; assay type: cell-based; settings: PC-3, 72 h, MTT; for CC50: read-out: LC50 (the source's name)
Procedure: as §1, §2, §3

[8] = system: HT-29 (colorectal adenocarcinoma); test: MTT viability assay, HT-29; assay type: cell-based; settings: HT-29, 72 h, MTT; for CC50: read-out: LC50 (the source's name)
Procedure: as §1, §2, §3

[9] = system: K-562 (chronic myelogenous leukemia); test: MTT viability assay, K-562; assay type: cell-based; settings: K-562, 72 h, MTT; for CC50: read-out: LC50 (the source's name)
Procedure: as §1, §2, §3

[10] = Methylselenol (CH3SeH) release by hydrolysis, quantified with DTNB (Ellman's reagent); assay type: physicochemical; settings: 100 μM compound, 100 μM DTNB, 100 mM phosphate buffer, 1 mM EDTA, pH 8, followed over 72 h
Source text: The new compounds were designed as CH3SeH precursors. The chemical features of the selenoester functional group facilitate a nucleophilic attack (i.e., with water) which would deliver the CH3SeH residue. In order to verify if CH3SeH could be released from the molecules by hydrolysis and if the rate differed among the compounds, the reaction of CH3SeH with 5,5′-dithiobis(2-nitrobenzoic acid) (DTNB or Ellman’s reagent) in aqueous environment was monitored. Briefly, when the disulfide bridge of DTNB reacts with thiols or selenols, 2-nitro-5-thiobenzoate (TNB^2−) is released and the mixed disulfide or selenylsulfide is formed. Each released CH3SeH produces one yellow TNB^2− species, whose absorbance can be quantified at 412 nm (Figure 2A).
A stock solution of the compounds was prepared in anhydrous DMSO (10 mM). The compounds were placed in a 96-well plate in a final concentration of 100 μM. Reaction started after adding 200 μL of an aqueous 100 mM Na2HPO4 buffer (1 mM EDTA, pH = 8), containing 100 μM of DTNB from a freshly prepared 10 mM ethanolic stock, which were added just before starting the reaction. The DTNB concentration was quantified with a cysteine standard curve ([…]). Blanks for the compounds in the absence of DTNB were also included as well as a blank to measure the slow but spontaneous hydrolysis of DTNB, which was further subtracted from all the values. Absorbance was read at 412 nm in a FLUOstar Omega microplate reader (BMG LabTech, Ortenberg, Germany). Results represent means of triplicate values ± SD.
Figure 2 CH3SeH release rates are dependent on the chemical features of the molecule. Released CH3SeH was quantified through reaction with Ellman’s reagent (DTNB). (A) Proposed reaction between CH3SeH and DTNB; (B) Quantification of TNB^2− at different times. The compounds were tested at 100 μM in 200 μL of 100 mM phosphate buffer (1 mM EDTA, pH = 8). DTNB concentration was also 100 μM. Absorbance was followed at 412 nm over 72 h. A cysteine standard curve (7.5–150 μM) was used to calculate the concentration of TNB^2− over time. Compounds showing less than 15% hydrolysis at 72 h are not included, except for compound 5 as example. Error bars indicate SD of triplicates.

| Molecule | GI50 [1] [µM] | TGI [1] [µM] | CC50 [1] [µM] | GI50 [2] [µM] | TGI [2] [µM] | CC50 [2] [µM] | GI50 [3] [µM] | TGI [3] [µM] | CC50 [3] [µM] | GI50 [5] [µM] | TGI [5] [µM] | CC50 [5] [µM] | GI50 [7] [µM] | TGI [7] [µM] | CC50 [7] [µM] | GI50 [8] [µM] | TGI [8] [µM] | CC50 [8] [µM] | GI50 [9] [µM] | TGI [9] [µM] | also measured |
| --- | --- | --- | --- | --- | --- | --- | --- | --- | --- | --- | --- | --- | --- | --- | --- | --- | --- | --- | --- | --- | --- |
| C[Se](=O)O [MSA, Methylseleninic acid, reference compound] | 3.7 ± 0.7 | 6.2 ± 1.2 | 8.7 ± 1.8 | 1.5 ± 0.5 | 5.4 ± 0.5 | 9.4 ± 1 | 3.5 ± 0.1 | 6.9 ± 0.2 | 19.9 ± 1.2 | 5.3 ± 1.2 | 9.2 ± 1.3 | 13.1 ± 1.3 | 4.4 ± 1.1 | 8.5 ± 2.4 | 47.6 ± 4.6 | – | – | – | – | – | reduction by GSH in the presence or absence of glutaredoxin (NADPH consumption) [4]: consistently reduced; reduction by TrxR1 (NADPH consumption) [6]: consistently reduced |
| Methyl 3-quinolinecarboselenoate [Compound 9] | 4.1 ± 1 | 7.1 ± 4.5 | 15.3 ± 9.1 | 4.4 ± 0.8 | 8.1 ± 1.2 | 48 ± 7.5 | 7.8 ± 1.2 | 33.0 ± 4.5 | 69.2 ± 2.7 | 3.7 ± 0.5 | 6.2 ± 0.4 | 8.6 ± 0.4 | 5.9 ± 0.5 | 10.0 ± 1.9 | 84.1 ± 8.9 | 3.4 ± 0.2 | 7.0 ± 0.2 | 37.2 ± 5 | 39.5 ± 3.1 | 72.6 ± 4.1 | CC50 [9]: > 100 µM; CH3SeH release / hydrolysis rate [10]: more sustained release |
| Methyl 4-nitrobenzoselenoate [Compound 1] | 3.8 ± 0.3 | 6.4 ± 0.4 | 9 ± 0.7 | 4.1 ± 0.5 | 7.9 ± 0.9 | 45 ± 4.6 | – | 50.5 ± 5.1 | 78.6 ± 2.9 | 3.4 ± 0.4 | 6.4 ± 1.1 | 9.3 ± 0.6 | 5.8 ± 0.7 | 10.4 ± 2.3 | 75.7 ± 3.3 | 5 ± 0.7 | 9.3 ± 1.4 | 87.2 ± 5 | 50.1 ± 2.3 | 85.3 ± 4.9 | CC50 [9]: > 100 µM; CH3SeH release / hydrolysis rate [10]: more sustained release |
| Methyl 5-isoxazolecarboselenoate [Compound 6] | 3 ± 0.9 | 5.6 ± 0.7 | 8.2 ± 0.5 | 3.5 ± 1 | 8.8 ± 0.7 | 71.9 ± 3.2 | 9 ± 2.8 | 43.9 ± 3.9 | 82 ± 1.3 | 2.7 ± 0.2 | 6.0 ± 0.4 | 9.3 ± 2 | 4.5 ± 1.3 | – | 61.5 ± 14 | 5 ± 0.8 | 15.1 ± 6.7 | 90.8 ± 15 | 18.5 ± 7.1 | 58.3 ± 3.5 | CC50 [9]: 98.1 ± 0.7 µM; CH3SeH release / hydrolysis rate [10]: completely hydrolyzed within the first two hours of incubation |
| Methyl 6-bromochromone-2-carboselenoate [Compound 11] | 2.4 ± 0.9 | 5.0 ± 0.8 | 7.6 ± 0.7 | 4.2 ± 0.7 | 8.2 ± 1.1 | > 100 | 9.4 ± 3.5 | 52.3 ± 2.9 | > 100 | 3.3 ± 0.1 | 6.7 ± 0.9 | 14.5 ± 4.5 | 5.3 ± 1.1 | 17.1 ± 5.0 | 66.2 ± 2.4 | 4.9 ± 0.7 | 9.6 ± 3 | 74.4 ± 4.2 | 81.9 ± 4 | >100 | CC50 [9]: > 100 µM; CH3SeH release / hydrolysis rate [10]: completely hydrolyzed within the first two hours of incubation |
